Measurements: patent US20260176284A1, “Compounds with Anti-KRAS Mutated Tumor Activity” (Trasveda Ltd., priority 2022, published 2026)
pIC50: −log10 of the molar value.

Tested on: KRAS G12D mutated AGS human gastric adenocarcinoma cells
Assay: Proliferation inhibition of KRAS G12D mutant AGS cells (CellTiter-Glo, 3 days; IC50 and single-point inhibition rate at 1 μM)
Type: cell-based
Details: 72 h, 3 days incubation, max concentration 10 μM
Method: This experiment assessed and validated the proliferation inhibitory activity of some compounds of the present invention against KRAS G12D mutant AGS cells.
Incubate at 37° C., 5% CO2, 95% humidity.
The following materials, instruments, and reagents were used in this experiment: Fetal Bovine Serum FBS (GIBCO, Cat #10099-141); CellTiter-Glo® Luminescent Cell Viability Assay (Promega, Cat #G7572); 96-well clear flat-bottom black-wall plate (Corning®, Cat #3603); SpectraMax multimode microplate reader (MD, 2104-0010A); CO2 Incubator (Thermo Scientific, Model 3100 Series); Biosafety cabinet (Thermo Scientific, Model 1300 Series A2); Inverted microscope (Olympus, CKX41SF); AGS cell line was purchased from Nanjing Kebai Biotechnology Co., Ltd., under the lot number CBP60476.
Cell culture and inoculation: The cells in the logarithmic growth phase were harvested, and cell counting was performed using a platelet counter. The cell viability was detected by Trypan Blue exclusion method to ensure that the cell viability was above 90%. The cell concentration was adjusted. Then, 90 μL of the cell suspension was added to each well of a 96-well plate respectively, and the cells in the 96-well plate were cultured at 37° C. and 5% CO2.
Drug dilution and addition: a) For the preparation of drugs for single-point inhibition rate determination: A 10-fold concentrated drug solution was prepared. 10 μL of the drug solution was added to each well of the 96-well plate inoculated with cells to make the working concentration 1 μM, and three replicate wells were set for each drug concentration; b) For the preparation of drugs for IC50 determination: A 10-fold concentrated drug solution was prepared. 10 μL of the drug solution was added to each well of the 96-well plate inoculated with cells to make the maximum working concentration 10 μM, with a 3.16× dilution and a total of 9 concentrations. Three replicate wells were set for each drug concentration. The cells in the 96-well plate with the added drugs were incubated at 37° C. and 5% CO2 for another 3 days, and then the CTG assay was performed.
The CTG reagent was thawed, and the cell plate was equilibrated to room temperature for 30 minutes. An equal volume of CTG solution was added to each well, and the plate was shaken on an orbital shaker for 5 minutes to lyse the cells. The cell plate was placed at room temperature for 20 minutes to stabilize the luminescence signal, and then the luminescence value was read.
The data were analyzed using GraphPad Prism 7.0 software. The data were fitted by nonlinear S-curve regression to obtain the dose-response curve, and the IC50 value was calculated accordingly.
Work on `C#Cc1c(F)ccc2cc(O)cc(-c3c(F)cc4c(N5CC6CCC(C5)N6)nc(OCC5(F)CCCN(C)C5)nc4c3F)c12` (atropisomer, axis not shown; (Ra)) [Example 1, (Ra)-4-(4-((1R,5S)-3,8-diazabicyclo[3.2.1]octan-3-yl)-6,8-difluoro-2-(3-fluoro-1-methylpiperidin-3-yl)methoxy)quinazolin-7-yl)-5-ethynyl-6-fluoronaphthalen-2-ol·diformate] yielded a pIC50 of 7.03. In the case of `C#Cc1c(F)ccc2cc(O)cc(-c3c(F)cc4c(N5CC6CCC(C5)N6)nc(OCC5(C)CCCN(C)C5)nc4c3F)c12` (atropisomer, axis not shown; (Ra)) [Example 2, (Ra)-4-(4-((1R,5S)-3,8-diazabicyclo[3.2.1]octan-3-yl)-2-((1,3-dimethylpiperidin-3-yl)methoxy)-6,8-difluoroquinazolin-7-yl)-5-ethynyl-6-fluoronaphthalen-2-ol·dicarboxylate], the pIC50 was 7.30. With `C#Cc1c(F)ccc2cc(O)cc(-c3c(F)cc4c(N5CC6CCC(C5)N6)nc(OCC5(C)CCCN(CCOC)C5)nc4c3F)c12` (atropisomer, axis not shown; (Ra)) [Example 3, (Ra)-4-(4-((1R,5S)-3,8-diazabicyclo[3.2.1]octan-3-yl)-6,8-difluoro-2-(1-(2-methoxyethyl)-3-methylpiperidin-3-yl)methoxy)quinazolin-7-yl)-5-ethynyl-6-fluoronaphthalen-2-ol·formate] the pIC50 was 6.80. `C#Cc1c(F)ccc2cc(O)cc(-c3c(F)cc4c(N5CC6CCC(C5)N6)nc(OCC5(C)CCCN(CCF)C5)nc4c3F)c12` (atropisomer, axis not shown; (Ra)) [Example 4, (Ra)-4-(4-((1R,5S)-3,8-diazabicyclo[3.2.1]octan-3-yl)-6,8-difluoro-2-(1-(2-fluoroethyl)-3-methylpiperidin-3-yl)methoxy)quinazolin-7-yl)-5-ethynyl-6-fluoronaphthalen-2-ol·diformate] showed a pIC50 of 7.06. With `C#Cc1c(F)ccc2cc(O)cc(-c3c(F)cc4c(N5CC6CCC(C5)N6)nc(OCC5(C)CN(C)CCC5OC)nc4c3F)c12` (atropisomer, axis not shown; (Ra)) [Example 5, (Ra)-4-(4-(((1R,5S)-3,8-diazabicyclo[3.2.1]octan-3-yl)-6,8-difluoro-2-(4-methoxy-1,3-dimethylpiperidin-3-yl)methoxy)quinazolin-7-yl)-5-ethynyl-6-fluoronaphthalen-2-ol·diformate] the pIC50 was 6.76. In the case of `C#Cc1c(F)ccc2cc(O)cc(-c3c(F)cc4c(N5CC6CCC(C5)N6)nc(OCC5(C)CN(C)CCC5(F)F)nc4c3F)c12` (atropisomer, axis not shown; (Ra)) [Example 6, (Ra)-4-(4-((1R,5S)-3,8-diazabicyclo[3.2.1]octan-3-yl)-2-((4,4-difluoro-1,3-dimethylpiperidin-3-yl)methoxy)-6,8-difluoroquinazolin-7-yl)-5-ethynyl-6-fluoronaphthalen-2-ol], the pIC50 was 7.26. Molecule `C#Cc1c(F)ccc2cc(O)cc(-c3c(F)cc4c(N5CC6CCC(C5)N6)nc(OCC56CC5CCN(C)C6)nc4c3F)c12` (atropisomer, axis not shown; (Ra)) [Example 9, (Ra)-4-(4-((1R,5S)-3,8-diazabicyclo[3.2.1]octan-3-yl)-6,8-difluoro-2-((3-methyl-3-azabicyclo[4.1.0]heptan-1-yl)methoxy)quinazolin-7-yl)-5-ethynyl-6-fluoronaphthalen-2-ol·diformate] has a pIC50 of 6.46. Work on `C#Cc1c(F)ccc2cc(O)cc(-c3c(F)cc4c(N5CC6CCC(C5)N6)nc(OCC5COCCN(C)C5)nc4c3F)c12` (centres unmarked) [Example 7] yielded a pIC50 of 6.11. `C#Cc1c(F)ccc2cc(O)cc(-c3c(F)cc4c(N5CC6CCC(C5)N6)nc(OCC5(C)CCCCN(CCOC)C5)nc4c3F)c12` [Example 8, 4-(4-((1R,5S)-3,8-diazabicyclo[3.2.1]octane-3-yl)-6,8-difluoro-2-((1-(2-methoxyethyl)-3-methylazepan-3-yl)methoxy)quinazolin-7-yl)-5-ethynyl-6-fluoronaphthalen-2-ol·triformate] gave a pIC50 of 6.60.

Tested on: KRAS G12D mutated AGS human gastric adenocarcinoma cells
Assay: Proliferation inhibition of KRAS G12D mutant AGS cells, another experiment with similar protocol (includes MRTX1133)
Type: cell-based
Details: Homo sapiens
Method: In another experiment, using a protocol similar to the one described above, the inhibitory activity of some representative compounds of the present invention against KRAS G12D mutated AGS human gastric adenocarcinoma cells was determined.
The synthesis of compound MRTX1133 was performed according to the method described in J. Med. Chem. 2022, 65, 4, 3123-3133.
Molecule `[2H]C([2H])([2H])N1CC/C(=C\F)[C@](C)(C([2H])([2H])Oc2nc(N3C[C@H]4CC[C@@H](C3)N4)c3cnc(-c4cc(O)cc5ccc(F)c(C#C)c45)c(F)c3n2)C1` [Example 304, 4-(4-((1R,5S)-3,8-diazabicyclo[3.2.1]octan-3-yl)-8-fluoro-2-(((S,E)-4-(fluoromethylene)-3-methyl-1-(methyl-d3)piperidin-3-yl)methoxy-d2)pyrido[4,3-d]pyrimidin-7-yl)-5-ethynyl-6-fluoronaphthalen-2-ol] has a pIC50 of 8.70. For `[2H]C([2H])([2H])N1CC/C(=C\F)[C@](C)(COc2nc(N3C[C@H]4CC[C@@H](C3)N4)c3cnc(-c4cc(O)cc5ccc(F)c(C#C)c45)c(F)c3n2)C1` [Example 306, 4-(4-((1R,5S)-3,8-diazabicyclo[3.2.1]octan-3-yl)-8-fluoro-2-(((S,E)-4-(fluoromethylene)-3-methyl-1-(methyl-d3)piperidin-3-yl)methoxy)pyrido[4,3-d]pyrimidin-7-yl)-5-ethynyl-6-fluoronaphthalen-2-ol], the pIC50 was 8.30.

Tested on: not listed separately
Assay: Mouse pharmacokinetics (IV and PO)
Type: in vivo
Details: 10 mg/kg, male CD-1 mice, PO (gavage), 1 mg/mL at 10 mL/kg, plasma
Method: The pharmacokinetic properties of the compounds of the present invention were evaluated through a mouse pharmacokinetic experiment.
Male CD-1 mice, aged 6-8 weeks old, were purchased from Zhejiang Vital River Laboratory Animal Co., Ltd.
IV administration group: The compound was formulated into a sodium acetate buffer solution (10 mM sodium acetate solution, adjusted to pH 4.0 with acetic acid) containing 20% Captisol (sulfobutyl β-cyclodextrin) so that the final concentration of each compound was 0.6 mg/mL. The drug formulation was injected into the tail vein of CD-1 mice at an injection volume of 5 mL/kg. After administration, blood samples were collected from the submandibular vein or by other appropriate methods at 5 min, 15 min, 30 min, 1 h, 2 h, 4 h, 6 h, 8 h, and 24 h. The blood samples were centrifuged at a low temperature for 6 minutes, and the plasma was collected and stored at −80° C. for testing. The PO administration group formulated the compound into a solvent of 0.5% Tween 80+99.5% (0.5% MC (400 cp)) or 5% DMSO+95% (0.5% MC (400 cp)) so that the final concentration of each compound was 1 mg/mL. The drug formulation was administered to CD-1 mice by gavage at a volume of 10 mL/kg. After administration, blood samples were collected from the submandibular vein or by other appropriate methods at 15 min, 30 min, 1 h, 2 h, 4 h, 6 h, 8 h, and 24 h. The blood samples were centrifuged at a low temperature for 6 minutes, and the plasma was collected and stored at −80° C. for testing.
10 μL of the plasma sample was taken, and 200 μL of methanol containing an internal standard was added as a precipitating agent to precipitate plasma proteins and extract the compounds to be tested in the plasma. After centrifugation at a low temperature, 10 μL of the supernatant was injected, and the drug blood concentration was analyzed by LC-MS/MS. The pharmacokinetic parameters were calculated using Winnonlin based on the drug concentration data at different time points.
In the case of `[2H]C([2H])([2H])N1CC/C(=C\F)[C@](C)(C([2H])([2H])Oc2nc(N3C[C@H]4CC[C@@H](C3)N4)c3cnc(-c4cc(O)cc5ccc(F)c(C#C)c45)c(F)c3n2)C1` [Example 304, 4-(4-((1R,5S)-3,8-diazabicyclo[3.2.1]octan-3-yl)-8-fluoro-2-(((S,E)-4-(fluoromethylene)-3-methyl-1-(methyl-d3)piperidin-3-yl)methoxy-d2)pyrido[4,3-d]pyrimidin-7-yl)-5-ethynyl-6-fluoronaphthalen-2-ol], the AUC(0-inf) was 1500 ng·h/mL, the AUC(0-t) was 1420 ng·h/mL and the half-life was 8.74 h. With `[2H]C([2H])([2H])N1CC/C(=C\F)[C@](C)(COc2nc(N3C[C@H]4CC[C@@H](C3)N4)c3cnc(-c4cc(O)cc5ccc(F)c(C#C)c45)c(F)c3n2)C1` [Example 306, 4-(4-((1R,5S)-3,8-diazabicyclo[3.2.1]octan-3-yl)-8-fluoro-2-(((S,E)-4-(fluoromethylene)-3-methyl-1-(methyl-d3)piperidin-3-yl)methoxy)pyrido[4,3-d]pyrimidin-7-yl)-5-ethynyl-6-fluoronaphthalen-2-ol] the AUC(0-inf) was 801 ng·h/mL, the AUC(0-t) was 759 ng·h/mL and the half-life was 7.17 h.
